From patent US11518788B2, “Methods and compositions for treating and preventing viral infection” (priority 2020, dated 2022)

Tested on: SARS-CoV-2 variant D614G
Format: cell-based

ACE2-Fc
inhibition of infection by SARS-CoV-2 variant D614G: inhibited infection
